Consider two substances from PMC7997369, “Assessment of the Multifunctional Behavior of Lupin Peptide P7 and Its Metabolite Using an Integrated Strategy” (Journal of Agricultural and Food Chemistry, 2020).

Experiment [1] deals with angiotensin-converting enzyme (ACE) (Homo sapiens, UniProt P12821). As to the kind of experiment: Cellular ACE inhibitory assay in renal HK-2 cells. It is filed as cell-based. Details: endogenous in cells. Particulars: HK-2 cells treated 24 h at 37 °C with P7 0.1–250 μM; ACE activity in cell lysates, fluorescent Abz substrate; mean ± sd of three independent experiments in triplicate. How it is done: HK-2 cells from the American Type Culture Collection (ATCC) were cultured using Dulbecco’s modified Eagle’s medium–F12 (DMEM–F12) containing 25 mM glucose, 4 mM stable L-glutamine, 100 units […] penicillin, and 100 μg […] streptomycin, supplemented with 10% heat-inactivated fetal bovine serum (FBS, Hyclone Laboratories, Logan, UT, U.S.A.). […]
angiotensin-converting enzyme (ACE), sequence (P12821 30-1306): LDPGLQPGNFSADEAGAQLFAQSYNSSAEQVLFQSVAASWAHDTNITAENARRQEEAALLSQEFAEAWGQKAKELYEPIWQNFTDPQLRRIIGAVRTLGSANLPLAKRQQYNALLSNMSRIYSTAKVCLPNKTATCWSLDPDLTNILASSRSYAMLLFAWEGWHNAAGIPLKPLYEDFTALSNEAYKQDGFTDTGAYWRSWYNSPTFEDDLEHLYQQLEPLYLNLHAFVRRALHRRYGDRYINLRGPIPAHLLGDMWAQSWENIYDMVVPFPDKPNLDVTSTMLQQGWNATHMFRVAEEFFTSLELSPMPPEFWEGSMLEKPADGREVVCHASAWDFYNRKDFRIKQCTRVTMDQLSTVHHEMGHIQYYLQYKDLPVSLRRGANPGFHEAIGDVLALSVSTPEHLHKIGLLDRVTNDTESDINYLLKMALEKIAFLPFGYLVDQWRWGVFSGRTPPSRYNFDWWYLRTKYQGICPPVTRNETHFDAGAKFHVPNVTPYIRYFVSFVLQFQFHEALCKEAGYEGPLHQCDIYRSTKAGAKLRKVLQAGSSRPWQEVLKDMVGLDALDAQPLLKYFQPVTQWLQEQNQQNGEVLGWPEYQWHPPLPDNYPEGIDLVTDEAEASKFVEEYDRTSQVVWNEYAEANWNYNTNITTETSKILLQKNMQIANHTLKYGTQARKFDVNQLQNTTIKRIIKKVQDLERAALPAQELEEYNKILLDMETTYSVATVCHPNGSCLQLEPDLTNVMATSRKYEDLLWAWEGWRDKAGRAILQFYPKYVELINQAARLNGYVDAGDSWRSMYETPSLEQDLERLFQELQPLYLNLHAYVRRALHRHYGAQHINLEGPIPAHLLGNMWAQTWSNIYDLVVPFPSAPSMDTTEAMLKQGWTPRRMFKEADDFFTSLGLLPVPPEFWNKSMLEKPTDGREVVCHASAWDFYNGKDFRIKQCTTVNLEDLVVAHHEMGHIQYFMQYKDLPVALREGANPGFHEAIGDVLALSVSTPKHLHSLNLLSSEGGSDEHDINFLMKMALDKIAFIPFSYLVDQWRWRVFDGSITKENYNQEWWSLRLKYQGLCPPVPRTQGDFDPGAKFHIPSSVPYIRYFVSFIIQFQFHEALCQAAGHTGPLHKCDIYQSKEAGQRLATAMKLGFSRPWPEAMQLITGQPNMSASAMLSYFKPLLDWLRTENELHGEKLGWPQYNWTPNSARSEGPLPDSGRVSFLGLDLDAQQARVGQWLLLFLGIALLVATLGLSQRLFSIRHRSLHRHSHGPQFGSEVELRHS
For the experiments, HK-2 and Caco-2 cells were seeded on 96-well plates at a density of 5 × 10^4 cells/well for 24 h. […] Total proteins were quantified by the Bradford method, and 2 μL of the supernatant (the equivalent of 2 μg of total proteins) was added to 18 μL of ACE1 lysis buffer in each well in a black 96-well plate with a clear bottom. […] Then, 20 μL of diluted ACE1 substrate [o-aminobenzoyl peptide (Abz-based peptide) substrate, 4% of ACE1 substrate in the assay buffer] was added in each well, except the background well, and the fluorescence (excitation/emission of 330/430 nm) was measured in a kinetic mode for 10 min at 37 °C.

The target in experiment [2] is T1, HMGCoAR (catalytic domain) (Homo sapiens, UniProt P04035).
T1 construct: finally the HMGCoAR (catalytic domain) (2 µL); purchased Sigma
T1 sequence (P04035 426-888 limits assumed): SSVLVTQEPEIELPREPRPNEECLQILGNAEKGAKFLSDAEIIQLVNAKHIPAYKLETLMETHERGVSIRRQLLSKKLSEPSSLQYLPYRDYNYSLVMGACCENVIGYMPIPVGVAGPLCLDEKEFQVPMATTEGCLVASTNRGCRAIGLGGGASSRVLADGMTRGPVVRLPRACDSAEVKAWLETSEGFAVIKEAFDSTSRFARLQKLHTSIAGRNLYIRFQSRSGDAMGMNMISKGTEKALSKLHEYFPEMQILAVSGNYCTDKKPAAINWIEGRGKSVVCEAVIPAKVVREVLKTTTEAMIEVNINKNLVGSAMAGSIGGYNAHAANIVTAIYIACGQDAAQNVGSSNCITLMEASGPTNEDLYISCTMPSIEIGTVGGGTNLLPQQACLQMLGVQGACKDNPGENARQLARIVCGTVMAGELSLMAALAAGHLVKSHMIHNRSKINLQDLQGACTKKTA
Particulars: read-out: IC50, in vitro HMGCoAR activity; cited from earlier work. An excerpt:
To express their activity in vivo, peptides masked within a protein sequence need not only be released by specific and selective proteases but may also be absorbed at the intestinal level and enter blood circulation to reach the target organs.[2] Differentiated Caco-2 cells still represent the best available model system for intestinal transport studies.[3]−[5] […] To function as a competitive inhibitor of HMGCoAR, a peptide should mimic the hydroxymethylglutaryl moiety. To achieve this goal, the conformation and side chain groups play a more important role than the total hydrophobicity. Moreover, the correlation of the inhibitory activity with the peptide length has not yet been established, while it has been confirmed that a ...

In experiment [3] the target is T1, HMGCoAR (catalytic domain). Description: In vitro HMGCoAR inhibitory activity assay. It is filed as biochemical. Particulars: 37 °C, NADPH absorbance at 340 nm, mean ± sd of three independent experiments in triplicate. How it is done:
The assay buffer, NADPH, substrate solution, and HMGCoAR were provided in the HMGCoAR assay kit (Sigma). The experiments were carried out testing LTFPG at 100 and 250 μM at 37 °C in agreement with the conditions previously reported.[8] For further details, see the Supporting Information.
The assay buffer, NADPH, substrate solution, and HMGCoAR were provided in the HMGCoAR Assay Kit (Sigma). The experiments were carried out following the manufacturer’s instructions at 37 °C. In particular, each reaction (200 µL) was prepared adding the reagents in the following order: 1 X assay buffer, LTFPG (100.0 and 250.0 µM) or vehicle (C), the NADPH (4 µL), the substrate solution (12 µL), and finally the HMGCoAR (catalytic domain) (2 µL). Subsequently, the samples were mixed and the absorbance at 340 nm read by a microplate reader Synergy H1 from Biotek at time 0 and 10 min. The HMGCoAR-dependent oxidation of NADPH and the inhibition properties of lupin peptides were measured by absorbance reduction, which is directly proportional to enzyme […]
In vitro ACE-inhibitory assay […]
The evaluation of the inhibition of ACE activity was based on the comparison between the concentrations of HA in the presence or absence of the inhibitor (Inhibitor Blank). The phenomenon of autolysis of HHL to give HA was evaluated by a reaction blank, i.e. a sample with the higher

No end group written: not given here.

Usually IC50 stands for the midpoint of a concentration-inhibition curve. In the case of LTFPGSAED [P7], the results for the IC50 in experiment [1] and in experiment [2] were 79.6 µM and 68.4 µM, respectively.

The term inhibition denotes how much of the control response was suppressed. For LTFPG [LTFPG], the inhibition at 100 µM in experiment [3] (100 μM) was found to be 4.7 ± 0.3%. For the same substance, the inhibition at 250 µM in experiment [3] (250 μM) is 10.3 ± 0.8%.
